Laboratory results as given in US11419335B2, “N-arylated analogues and uses thereof” (University of Florida Research Foundation, Incorporated, priority 2016, dated 2022).
Values after ≈ are worked out from the molar mass of the structure shown. Where two headings read alike, the source gives them in different places. Marks after values point to notes of the source that are not given here.

What was measured:
[1] = system: methicillin-resistant Staphylococcus aureus MRSA-2 (clinical isolate); experiment: MIC broth microdilution, MRSA-2; type: cell-based; details: for MIC: read-out: MIC MRSA-2
Procedure: (§1) The minimum inhibitory concentration (MIC) for each tested compound was determined by the broth microdilution method as recommended by the Clinical and Laboratory Standards Institute (CLSI). In a 96-well plate, eleven two-fold serial dilutions of each compound were made in a final volume of 100 μL Luria Broth. Each well was inoculated with ˜10^5 bacterial cells at the initial time of incubation, prepared from a fresh log phase culture (OD600 of 0.5 to 1.0 depending on bacterial strain). The MIC was defined as the lowest concentration of compound that prevented bacterial growth after incubating 16 to 18 hours at 37° C. (MIC values were supported by spectrophotometric readings at OD600). DMSO served as our vehicle and negative control in each microdilution MIC assay. DMSO was serially diluted with a top concentration of 1% v/v.
as §1, with “for each compound was” for “for each tested compound was”, “Standards Institute (CLSI).^6 In a” for “Standards Institute (CLSI). In a”, “concentration of test compound that” for “concentration of compound that”, “37° C. The concentration range tested for each compound during this study was 0.10 to 100 μM. DMSO served” for “37° C. (MIC values were supported by spectrophotometric readings at OD600). DMSO served”, “1% v/v. All MIC values were obtained from a minimum of three independent experiments.” for “1% v/v.”

[2] = system: methicillin-resistant Staphylococcus epidermidis (MRSE strain ATCC 35984); experiment: MIC broth microdilution, MRSE 35984; type: cell-based; details: for MIC S. epidermidis MRSE 35984: Table 1A
Procedure: as §1
as §1, with “for each compound was” for “for each tested compound was”, “Standards Institute (CLSI).^6 In a” for “Standards Institute (CLSI). In a”, “concentration of test compound that” for “concentration of compound that”, “37° C. The concentration range tested for each compound during this study was 0.10 to 100 μM. DMSO served” for “37° C. (MIC values were supported by spectrophotometric readings at OD600). DMSO served”, “1% v/v. All MIC values were obtained from a minimum of three independent experiments.” for “1% v/v.”

[3] = system: Acinetobacter baumannii (ATCC 1794); experiment: MIC broth microdilution, A. baumannii 1794; type: cell-based; details: for MIC A. baumannii 1794: Table 1A
Procedure: as §1
as §1, with “for each compound was” for “for each tested compound was”, “Standards Institute (CLSI).^6 In a” for “Standards Institute (CLSI). In a”, “concentration of test compound that” for “concentration of compound that”, “37° C. The concentration range tested for each compound during this study was 0.10 to 100 μM. DMSO served” for “37° C. (MIC values were supported by spectrophotometric readings at OD600). DMSO served”, “1% v/v. All MIC values were obtained from a minimum of three independent experiments.” for “1% v/v.”

[4] = system: vancomycin-resistant Enterococcus faecium (VRE strain ATCC 700221); experiment: MIC broth microdilution, VRE 700221; type: cell-based; details: for MIC E. faecium VRE 700221: Table 1A
Procedure: as §1
as §1, with “for each compound was” for “for each tested compound was”, “Standards Institute (CLSI).^6 In a” for “Standards Institute (CLSI). In a”, “concentration of test compound that” for “concentration of compound that”, “37° C. The concentration range tested for each compound during this study was 0.10 to 100 μM. DMSO served” for “37° C. (MIC values were supported by spectrophotometric readings at OD600). DMSO served”, “1% v/v. All MIC values were obtained from a minimum of three independent experiments.” for “1% v/v.”

[5] = system: Pseudomonas aeruginosa (PAO1); experiment: MIC broth microdilution, PAO1; type: cell-based
Procedure: as §1
as §1, with “for each compound was” for “for each tested compound was”, “Standards Institute (CLSI).^6 In a” for “Standards Institute (CLSI). In a”, “concentration of test compound that” for “concentration of compound that”, “37° C. The concentration range tested for each compound during this study was 0.10 to 100 μM. DMSO served” for “37° C. (MIC values were supported by spectrophotometric readings at OD600). DMSO served”, “1% v/v. All MIC values were obtained from a minimum of three independent experiments.” for “1% v/v.”

[6] = system: human red blood cells (hRBC); experiment: Hemolysis of red blood cells; type: cell-based
Procedure: The washing was repeated three times with the buffer. In a 96-well plate, test compounds were added to the buffer from DMSO stocks. […] The plate was then incubated for 1 hour at 37° C. After incubation, the plate was centrifuged for 5 minutes at 3,500 rpm. Then 80 μL of the supernatant was transferred to another 96-well plate and the optical density (OD) was read at 405 nm. DMSO served as our negative control (0% hemolysis) while Triton X served as our positive control (100% hemolysis). […] All reported data correspond to three independent experiments. Ten-point dose-response curves were generated in 96-well plates to determine 50% hemolysis (HC50 values) of red blood cells.
The washing was repeated three times with the buffer. In 96-well plate, the test compounds were added to the buffer. Then 50 μL of 2% of hRBCs in the buffer were added to the test plate to make the final concentrations ranging from 0.2 to 200 μM of each test compound. The plate was then incubated for 1 hour at 37° C. After incubation, the plate was centrifuged for 5 minutes at 3500 rpm and then 80 μL of the supernatant was transferred to another 96-well plate and the Optical Density (OD) was read at 405 nm. DMSO served as our negative control (0% haemolysis) and Triton X served as our positive control (100% haemolysis). The HC50 (concentration of test compound required to lyse red blood cells by 50%) was calculated by plotting the dose-response curve (not shown) with Graphpad Prism 6.0. All data were obtained from three independent haemolysis experiments.

[7] = system: methicillin-sensitive Staphylococcus aureus ATCC 29213; experiment: MIC broth microdilution, S. aureus 29213; type: cell-based
Procedure: as §1, with “The MIC was defined as the lowest concentration of compound that prevented bacterial growth after incubating 16 to 18 hours at 37° C.” left out
(§2) Each well was inoculated with ˜10^5 bacterial cells at the initial time of incubation, prepared from a fresh log phase culture (OD600 of 0.5 to 1.0 depending on bacterial strain). […] The concentration range tested for each compound during this study was 0.10 to 100 μM. DMSO served as our vehicle and negative control in each microdilution MIC assay. DMSO was serially diluted with a top concentration of 1% v/v. All MIC values were obtained from a minimum of three independent experiments.

MRSA BAA-1707 = experiment: MIC broth microdilution, MRSA BAA-1707; type: cell-based, Staphylococcus aureus; details: for MIC MRSA 1707: Table 4
Procedure: as §1, with “The MIC was defined as the lowest concentration of compound that prevented bacterial growth after incubating 16 to 18 hours at 37° C.” left out
as §2

Structure (SMILES)	MIC MRSA-2 ([1]; Table 1A)	MIC MRSA-2 ([1]; Table 4)	MIC S. epidermidis MRSE 35984 [2]	MIC MRSE 35984 ([2]; Table 4)	MIC A. baumannii 1794 ([3]; in µM)	MIC A. bau. 1794 ([3]; Table 4)	MIC E. faecium VRE 700221 [4]	MIC VRE 700221 ([4]; Table 4)	MIC PAO1 ([5]; Table 1A)	MIC PAO1 ([5]; Table 4)	other results
CCCCCCCCCCCCCCCCn1c(C)[n+](Cc2cccc(F)c2)c2ccccc21.[Br-] [Compound 27]	6.25 µM	6.25 µM	9.38^a	9.38a micromolar	>100	>100 µM	3.13 µM	3.13 µM	> 100 µM	>100 µM	
CCCCCCCCCCCCCCCCn1cc[n+](Cc2ccc(C(C)C)cc2)c1C.[Br-] [Compound 12]	6.25 µM	6.25 µM	2.35^a	2.35a micromolar	>100	>100 µM	3.13 µM	3.13 µM	> 100 µM	>100 µM	
CCCCCCCCCCCCCCCCn1cc[n+](Cc2ccccc2C[n+]2ccn(CCCCCCCCCCCCCCCC)c2C)c1C [AB-3-35]	> 100 µM		> 100 µM		>100		> 100 µM		> 100 µM		HC50 [6]: 34.5 µM
CCCCCCCCCCCCCCCCn1ccnc1C [Compound 23, 1-hexadecyl-2-methyl-1H-imidazole]	6.25 µM (≈ 1.92 µg/mL)		3.13 µM (≈ 0.959 µg/mL)		>100		2.35^a		> 100 µM		
CCCCCCCCCCCCCCCCn1cc[n+](-c2ccc(OC(F)(F)F)cc2)c1C.[Br-] [Compound 7]		3.13 µM				18.8a micromolar				>100 µM	MIC ([1]; Table 1B): 3.13 µM; MIC ([1]; Table 3): 3.13 µM; MIC S. aureus 29213 ([7]; Table 1B): 2.35^a μM; MIC S. aureus 29213 ([7]; Table 3): 2.35^a μM; MIC MRSA BAA-1707 (MRSA BAA-1707; Table 1B): 4.69^a μM; MIC MRSA BAA-1707 (MRSA BAA-1707; Table 3): 4.69^a μM; MIC MRSA 1707 (MRSA BAA-1707): 4.69a micromolar
Cc1nccn1Cc1ccccc1 [Compound 22]	> 100 µM		> 100 µM		>100		> 100 µM		> 100 µM		MIC ([1]; Staphylococcus aureus, MRSA, Table 4): > 100 µM; MIC ([2]; Staphylococcus epidermidis, Table 4, read-out: MIC MRSE 35984): > 100 µM; MIC ([3]; Acinetobacter baumannii, ATCC1794, Table 4, read-out: MIC A. bau. 1794): > 100 µM; MIC ([4]; Table 4, read-out: MIC VRE 700221): > 100 µM; MIC ([5]; Pseudomonas aeruginosa, PAO1, Table 4): > 100 µM
CCCCCCCCCCCCCCCCn1cc[n+](Cc2cc(Br)cc(Br)c2)c1C.[Br-] [Compound 20]	37.5 µM	37.5 µM	12.5 µM	12.5 µM	>100	>100 µM	6.25 µM	6.25 µM	> 100 µM	>100 µM	
CCCCCCCCCCCCCCCCn1cc[n+](Cc2cc(C(F)(F)F)cc(C(F)(F)F)c2)c1C.[Br-] [Compound 19]	12.5 µM	12.5 µM		12.5 µM	>100	>100 µM	9.38^a	9.38a micromolar	> 100 µM	>100 µM	
CCCCCCCCCCCCCCCCn1cc[n+](-c2ccc(C(F)(F)F)cc2)c1C.[Br-] [Compound 2]											RBC HC50 [6]: 13.4 µM; hemolytic activity [6]: potent hemolytic activities
C=CC[n+]1ccn(CCCCCCCCCCCCCCCC)c1C.[Br-] [Compound 10]	2.35^a	2.35a micromolar	0.78 µM	0.78 µM		9.38a micromolar	2.35^a	2.35a micromolar	> 100 µM	>100 µM	MIC A. baumannii 1794 [3]: 9.38^a
CCCCCCCCCCCCCCCCn1cc[n+](Cc2ccc(C(C)(C)C)cc2)c1C.[Br-] [Compound 13]	12.5 µM	12.5 µM	9.38^a	9.38a micromolar	>100	>100 µM	4.69^a	4.69a micromolar	> 100 µM	>100 µM	
CCCCCCCCCCCCCCCCn1cc[n+](-c2ccc(Oc3ccccc3)cc2)c1C.[Br-] [Compound 5]		4.69a micromolar				37.5a micromolar				>100 µM	MIC MRSA-2 ([1]; Table 1B): 4.69^a μM; MIC MRSA-2 ([1]; Table 3): 4.69^a μM; MIC S. aureus 29213 ([7]; Table 1B): 4.69^a μM; MIC S. aureus 29213 ([7]; Table 3): 4.69^a μM; MIC MRSA BAA-1707 (MRSA BAA-1707; Table 1B): 4.69^a μM; MIC MRSA BAA-1707 (MRSA BAA-1707; Table 3): 4.69^a μM; MIC MRSA 1707 (MRSA BAA-1707): 4.69a micromolar
CCCCCCCCCCCCCCCCn1cc[n+](Cc2ccc(Br)cc2)c1C.[Br-] [Compound 14]	6.25 µM	6.25 µM	6.25 µM	6.25 µM	>100*	>100 µM	4.69^a	4.69a micromolar	> 100 µM	>100 µM	
CCCCCCCCCCCCCCCCn1c(C)[n+](Cc2cccc(OC)c2)c2ccccc21.[Br-] [Compound 26]	3.13 µM	3.13 µM	6.25 µM	6.25 µM	>100	>100 µM	1.56 µM	1.56 µM	> 100 µM	>100 µM	
